Positions count from the first letter of the chain named. Read-outs that look alike come from different tables or passages of the source.

In one assay the target is MelB. Details: method as in Ethayathulla et al., 2014. To be noted: ref Ethayathulla et al., 2014; read-out: Binding affinity between MelB and the substrate; cited from earlier work.
In assay [1] the target is T1, SotB (Escherichia coli, UniProt P31122).
T1 construct: The full-length sotB and lapC genes from the E. coli MG1655 genome were subcloned into the cloning vector pET28a; 8xHis (C); made in house; host or cells: E. coli C43(DE3)
T1 sequence (P31122 whole entry): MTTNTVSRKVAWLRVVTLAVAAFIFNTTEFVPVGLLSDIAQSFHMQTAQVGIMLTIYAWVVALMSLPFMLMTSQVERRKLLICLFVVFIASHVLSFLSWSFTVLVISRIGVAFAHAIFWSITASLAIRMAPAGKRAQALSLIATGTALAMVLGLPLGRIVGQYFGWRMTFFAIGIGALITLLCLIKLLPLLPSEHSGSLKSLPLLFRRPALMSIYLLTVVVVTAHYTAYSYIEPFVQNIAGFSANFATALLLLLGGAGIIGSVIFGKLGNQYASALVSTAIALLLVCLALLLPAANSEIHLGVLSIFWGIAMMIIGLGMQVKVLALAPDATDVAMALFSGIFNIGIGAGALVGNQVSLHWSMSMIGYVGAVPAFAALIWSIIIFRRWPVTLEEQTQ
Description: Cell based radiotracer uptake assay. To be noted: E. coli C43(DE3), 0.1 μM tracer, 1 h, p < 0.01. The procedure:
The cell-based uptake assay was performed with the following protocol. Plasmids pET28a and pET28a/sotB were transformed into E. coli C43(DE3) competent cells, respectively. Then, these two kinds of cells were grown in LB medium at 37°C and induced with 0.2 mM IPTG for 1 h, when the cell density reached an OD600 of about 1.5. Cells were then harvested by centrifugation. After being washed three times with MK buffer (150 mM KCl, 5 mM MES, pH 6.5), the cells were resuspended in the same buffer to an OD600 of 2.0. To measure the transport activity of SotB protein, took 5 ml of the above cell suspension, respectively, and added ^3H-L-arabinose (American Radiolabeled Chemicals) at a final concentration of 0.1 μM. All the reactions lasted 1 h and were stopped by diluting the cell suspension with 5 ml ice-cold MK buffer. Cells were then harvested by centrifugation. After being washed three times with ddH2O, the cells were resuspended in 5 ml ddH2O, respectively. Then the cells were added to the sample bottle, respectively, and mixed with the same volume of excess scintillation, and then taken for liquid scintillation counting. All the experiments were repeated at least three times.

The target in a further assay is MdfA. Details: method as in Heng et al., 2015. To be noted: ref Heng et al., 2015; read-out: Binding affinity between MdfA and the substrate; cited from earlier work.
Assay [2] deals with T1, SotB. Description: SPR affinity assay, wild-type SotB. It is filed as binding. The procedure: (§1) The instrument used in surface plasmon resonance (SPR) affinity assays was OpenSPR (Nicoya, Canada) and the chip used was COOH sensor chip (Nicoya, Canada). SotB and its variants were as ligands. IPTG, L-arabinose, D-xylose, D-glucose, D-fructose, and D-mannose were as small molecules. Using HSB-EP buffer (10 mM HEPES, 150 mM NaCl, 3 mM EDTA, 0.005% Tween-20, pH7.4) as test buffer and setting flow rate 150 μl/min after installed COOH chip according to OpenSPRTM instrument standard operating procedure. After the signal baseline was reached, loading 200 μl 80% isopropyl alcohol and ran for 10 s to drain bubbles. After reaching baseline, the sample ring was rinsed with HSB-EP buffer and emptied with air. After the signal reached the baseline, loading 200 μl EDC (400 mM, Sigma)/NHS (100 mM, Sigma; 1:1) solution with a flow rate 20 μl/min for 4 min. Then, loading 200 μl ligand (SotB/SotB variants) diluted by the activation buffer (sodium acetate, 10 mM, pH3.5) and ran for 4 min (20 μl/min). Then the sample ring was rinsed with HSB-EP buffer and emptied with air. Loading 200 μl 1 M ethanolamine (Sigma) blocking solution (20 μl/min, 4 min), rinsed the sample ring with HSB-EP buffer, and emptied the sample ring with air. Observing baseline for 5 min to ensure stability. The small molecules were diluted with PBS buffer (2 mM of KH2PO4, 10 mM of Na2HPO4, 2.7 mM of KCl, and 137 mM of NaCl at pH 7.4), and the concentration was shown in the experimental results. The flow rate for small molecules was performed at 20 μl/min. The binding time of small molecule and ligand was 240 s, and the dissociation was 240 s. The analysis software used for the experimental results was TraceDrawer, and the analysis method was one-to-one analysis model.

Assay [3] deals with intact E. coli MG1655 strain. Description: Growth curve (L-arabinose inhibition / D-xylose competition) assay, intact MG1655. Format: cell-based, Escherichia coli. From the text: In the process of sotB gene knockout, two plasmids were introduced into E. coli MG1655 strain: the plasmid pEcCas expressing Cas9 protein (kanamycin resistance) and the plasmid pEcgRNA/sotB expressing related gRNA (spectinomycin resistance). The pEcCas plasmid was successfully eliminated in this study. […] Thus, the sotB-deletion strain has resistance to spectinomycin. In order to carry out the related L-arabinose inhibition assay more strictly, the same plasmid (pEcgRNA/sotB) was then transformed into intact E. coli MG1655 cells, and the growth conditions of the two strains were measured as follows: The E. coli MG1655 cells (intact cells and sotB-deletion cells) were grown in liquid LB medium containing spectinomycin (50 μg/ml) at 37°C for overnight. The cells were then diluted to an OD600 value of 0.8 with liquid LB medium containing spectinomycin (50 μg/ml). Then, the cells were further diluted 1,000 times with liquid LB medium containing spectinomycin (50 μg/ml). The diluted cells were added to a 96-well plate (200 μl/well). Then, L-arabinose was added with final concentrations of 0 μM, 10 μM, 100 μM, 1 mM, 10 mM, and 100 mM, respectively. The 96-well plate was incubated at 37°C, and the OD600 value was measured every 1 h with a microplate reader. For the competition assay, the intact MG1655 cells diluted 1,000 times were divided into two parts and then added into 96-well plate (200 μl/well). One part was directly added with D-xylose at a final concentration of 0, 1, and 10 mM, respectively; the other part was first added with L-arabinose at a final concentration of 10 mM, then D-xylose was added with final concentrations of 0, 1, and 10 mM, respectively. The method of growth curve measurement is the same as above. All the experiments were repeated at least three times.

Another assay concerns the target XlyE. Details: method as in Sun et al., 2012. To be noted: ref Sun et al., 2012; read-out: Binding affinity between XlyE and its substrate; cited from earlier work.
Assay [4] concerns the target T1, SotB. The note with it: ref Koita and Rao, 2012; cited from earlier work.
A further assay has as its target T2, SotB E29A (Escherichia coli, UniProt P31122, E29A).
T2 construct: The full-length sotB and lapC genes from the E. coli MG1655 genome were subcloned into the cloning vector pET28a; 8xHis (C); made in house; host or cells: E. coli C43(DE3)
T2 sequence (P31122 1-396 E29A): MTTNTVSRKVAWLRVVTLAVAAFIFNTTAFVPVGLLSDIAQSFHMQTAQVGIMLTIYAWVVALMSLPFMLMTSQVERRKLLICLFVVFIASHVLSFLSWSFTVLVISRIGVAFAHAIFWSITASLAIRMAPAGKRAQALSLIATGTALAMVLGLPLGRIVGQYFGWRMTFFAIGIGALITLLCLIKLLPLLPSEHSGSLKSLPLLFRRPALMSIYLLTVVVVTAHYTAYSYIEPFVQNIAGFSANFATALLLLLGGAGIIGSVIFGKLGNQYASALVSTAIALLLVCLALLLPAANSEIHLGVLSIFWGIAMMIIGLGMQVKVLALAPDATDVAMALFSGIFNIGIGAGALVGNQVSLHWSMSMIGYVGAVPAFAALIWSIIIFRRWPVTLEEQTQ
Description: SPR affinity assay, SotB variant E29A. The note with it: read-out: KD, binding affinity with E29A. The procedure:
as §1, with “The small molecules were diluted with PBS buffer (2 mM of KH2PO4, 10 mM of Na2HPO4, 2.7 mM of KCl, and 137 mM of NaCl at pH 7.4), and the concentration was shown in the experimental results. The flow rate for small molecules was performed at 20 μl/min. The binding time of small molecule and ligand was 240 s, and the dissociation was 240 s. The analysis software used for the experimental results was TraceDrawer, and the analysis method was one-to-one analysis model.” left out

The target in another assay is T3, SotB H115A (Escherichia coli, UniProt P31122, H115A).
T3 construct: The full-length sotB and lapC genes from the E. coli MG1655 genome were subcloned into the cloning vector pET28a; 8xHis (C); made in house; host or cells: E. coli C43(DE3)
T3 sequence (P31122 1-396 H115A): T2 sequence (P31122 1-396 E29A) with A29E, H115A
Description: SPR affinity assay, SotB variant H115A. Format: binding. To be noted: SotB variant H115A, read-out: KD, binding affinity with H115A. The procedure: as §1

In a further assay the target is T4, SotB W119A (Escherichia coli, UniProt P31122, W119A).
T4 construct: The full-length sotB and lapC genes from the E. coli MG1655 genome were subcloned into the cloning vector pET28a; 8xHis (C); made in house; host or cells: E. coli C43(DE3)
T4 sequence (P31122 1-396 W119A): T2 sequence (P31122 1-396 E29A) with A29E, W119A
Description: SPR affinity assay, SotB variant W119A. To be noted: read-out: KD, binding affinity with W119A. The procedure:
as §1, with “The small molecules were diluted with PBS buffer (2 mM of KH2PO4, 10 mM of Na2HPO4, 2.7 mM of KCl, and 137 mM of NaCl at pH 7.4), and the concentration was shown in the experimental results. The flow rate for small molecules was performed at 20 μl/min. The binding time of small molecule and ligand was 240 s, and the dissociation was 240 s. The analysis software used for the experimental results was TraceDrawer, and the analysis method was one-to-one analysis model.” left out

A further assay concerns the target T5, SotB S339A (Escherichia coli, UniProt P31122, S339A).
T5 construct: The full-length sotB and lapC genes from the E. coli MG1655 genome were subcloned into the cloning vector pET28a; 8xHis (C); made in house; host or cells: E. coli C43(DE3)
T5 sequence (P31122 1-396 S339A): T2 sequence (P31122 1-396 E29A) with A29E, S339A
Description: SPR affinity assay, SotB variant S339A. To be noted: read-out: KD, binding affinity with S339A. The procedure:
as §1, with “The small molecules were diluted with PBS buffer (2 mM of KH2PO4, 10 mM of Na2HPO4, 2.7 mM of KCl, and 137 mM of NaCl at pH 7.4), and the concentration was shown in the experimental results. The flow rate for small molecules was performed at 20 μl/min. The binding time of small molecule and ligand was 240 s, and the dissociation was 240 s. The analysis software used for the experimental results was TraceDrawer, and the analysis method was one-to-one analysis model.” left out

In the next assay the target is T6, SotB N343A (Escherichia coli, UniProt P31122, N343A).
T6 construct: The full-length sotB and lapC genes from the E. coli MG1655 genome were subcloned into the cloning vector pET28a; 8xHis (C); made in house; host or cells: E. coli C43(DE3)
T6 sequence (P31122 1-396 N343A): T2 sequence (P31122 1-396 E29A) with A29E, N343A
Description: SPR affinity assay, SotB variant N343A. The note with it: SotB variant N343A, read-out: KD, binding affinity with N343A. It is filed as binding. The procedure: as §1

A further assay addresses FucP. Details: method as in Dang et al., 2010. To be noted: ref Dang et al., 2010; read-out: Binding affinity between FucP and the substrate; cited from earlier work.
The mark [5] stands for this setting: SPR, wild-type SotB immobilised, one-to-one model, read-out: KD (equilibrium dissociation constant), binding affinity with SotB.

For the compound `OC[C@H]1O[C@H](OCC2O[C@@H](O)[C@H](O)[C@@H](O)[C@@H]2O)[C@H](O)[C@@H](O)[C@H]1O` (stereo partly drawn) [melibiose], the Kd on MelB is 1 mM.
As to ^3H-L-arabinose, the “Accumulation in cells expressing wild-type SotB relative to empty vector pET28a” value on SotB [1] is “significant reduced accumulation”.
`O=C(N[C@H](CO)[C@H](O)c1ccc([N+](=O)[O-])cc1)C(Cl)Cl` [Chloramphenicol]: at MdfA, the Kd is 75 µM.
For `O=C[C@H](O)[C@@H](O)[C@H](O)CO` [D-xylose], the “Binding affinity to SotB, fold higher than that of L-arabinose to SotB” value on SotB [2] (SPR, wild-type SotB) is 8.7 fold. In addition, the values for the Kd on SotB [2] (setting [5]) and on XlyE were 0.47 mM and 350 µM, respectively. Further, the “Effect on growth (OD600 growth curve)” value in [3] (intact MG1655, 1 mM D-xylose, without L-arabinose) is reported as “did not cause any growth inhibition”; in [3] (intact MG1655, 10 mM D-xylose in the presence of 10 mM L-arabinose), “inhibit the growth”; in assay [3] (intact MG1655, 10 mM D-xylose, without L-arabinose), “did not cause any growth inhibition”. Further, the “Transport by SotB” value on SotB [4] is “cannot transport”.
Take `OC[C@H]1OC(O)[C@@H](O)[C@@H](O)[C@@H]1O` (stereo partly drawn) [D-mannose]: at SotB [2] (setting [5]), the Kd came out at 3.1 mM.
Take `CC(C)S[C@@H]1O[C@H](CO)[C@H](O)[C@H](O)[C@H]1O` [IPTG, isopropyl-β-D-1-thiogalactopyranoside]: the “Binding affinity with SotB, fold lower than that of L-arabinose with SotB” value on SotB [2] (SPR, wild-type SotB) is on record as around 2.5 fold. Further, the Kd at SotB [2] (setting [5]) was found to be 10.2 mM; at SotB E29A, 7.6 mM; on SotB H115A it was 13.7 mM; at SotB W119A it was 6.7 mM; at SotB S339A, 7.6 mM; on SotB N343A, 15 mM.
With `O=C(CO)[C@@H](O)[C@H](O)[C@H](O)CO` [D-fructose], the Kd on SotB [2] was determined as 6.6 mM.
Take `C[C@H](O)[C@@H](O)[C@@H](O)[C@H](O)C=O` [fucose]: at FucP, the Kd was 470 µM.
With `OC[C@H]1OC(O)[C@H](O)[C@@H](O)[C@@H]1O` (stereo partly drawn) [D-glucose], the Kd at SotB [2] (setting [5]) was 2.6 mM.

The values are drawn from article PMC9650428, “Mutagenesis and functional analysis of SotB: A multidrug transporter of the major facilitator superfamily from Escherichia coli” (Frontiers in Microbiology, 2022).
